Results taken from patent US9844549B2, “2-aminothiazole derivative or salt thereof” (ASTELLAS PHARMA INC., priority 2014, dated 2017).
Where a name gives a salt, the structure may show the parent alone.

system: anesthetized rats; experiment: Effect on pelvic nerve stimulation-induced elevation of intravesical pressure in anesthetized rats; assay type: in vivo; conditions: Rattus norvegicus; 3 mg/kg intravenous; maximum effect within one hour; AUC, pre-treatment = 100%; SD female rats; read-out: Increase rate of intravesical pressure (% of pre)
Method: Test Example 3: Effect on Pelvic Nerve Stimulation-Induced Elevation of Intravesical Pressure in Anesthetized Rats
The effect of the Example compounds of the present invention in the pelvic nerve electrical stimulation-induced elevation of intravesical pressure using rats as an action of nerve stimulation-dependent bladder contraction in vivo was measured by the following method. That is, SD female rats (Japan SLC, Inc.) were used and its lower abdomen was dissected at the midline under pentobarbital anesthesia (50 mg/kg ip). After ligating and cutting the ureter on both sides, a cannula (PE-50) for measuring the intravesical pressure was inserted into the bladder from the external urethral opening and fixed by a clip. After injecting about 200 μL of saline through the cannula that had been inserted into the bladder, the other side was connected to a pressure transducer to measure the intravesical pressure. Under a stereoscopic microscope observation, the pelvic nerve in the vicinity of the bladder was peeled and an electrode for nerve stimulation (unique Medical) was placed. The abdominal cavity was filled with mineral oil (MP BIOMEDICALS). After placing in a post-operative stabilization period, the pelvic nerve was subjected to electrical stimulation (stimulation voltage: 10 V, stimulation frequency: 8 Hz, pulse width: 0.3 msec, and stimulation time: 10 seconds) to elicit the elevation of intravesical pressure, using an electrical stimulator (Nihon Kohden). By repeating the electrical stimulation at an interval of 2 minutes while adjusting the voltage, the voltage was adjusted to elicit about 50% to 70% elevation of intravesical pressure elicited at 10 V. Thereafter, by repeating the electrical stimulation at an interval of 10 minutes, the increase in the intravesical pressure by electrical stimulation was stabilized three times or more, and the test substance (an administration amount of 3 mg/kg) was then administered from the catheter detained in the vein at a volume of 1 mL/kg, thus measuring an effect of the elevation of the intravesical pressure of the test substance for 1 hour. The test substance was dissolved in water supplemented with 10% DMSO and 10% Cremophor.
The response was applied to a personal computer through a PowerLab (registered trademark) and analyzed by LabChart (registered trademark). The AUC of each elevation of the intravesical pressure was calculated, the intravesical pressure elevation rate (% of pre) after the treatment with the test substance was calculated by taking an average value of the values measured three times before the treatment with the test substance as 100%, and the maximum effect during a period within one hour after administration of the compound was considered as the effect of the test substance.

Row | Structure (SMILES) | response vs control in vivo at 3 mg/kg [%]
1 | COC[C@H]1CN(c2ncnc(Nc3nc(-c4ccc(Cl)c(C(F)(F)F)c4)c(CN4CCC[C@H]4C)s3)c2F)CCN1CCC(=O)O [Example 55] | 189
2 | CCN(CC)Cc1sc(Nc2nc(C)nc(N3CCN(CCC(=O)O)CC3)c2F)nc1-c1cc(F)cc(C(F)(F)F)c1 [Example 97] | 143
3 | C[C@@H]1CCCN1Cc1sc(Nc2ncnc(N3CCN(CCC(=O)O)[C@H](CF)C3)c2F)nc1-c1ccc(Cl)c(C(F)(F)F)c1 [Example 59] | 225
4 | CC[C@@H]1CCCN1Cc1sc(Nc2ncnc(N3CCN(CCC(=O)O)CC3)c2F)nc1-c1cc(Cl)cc(C(F)(F)F)c1 [Example 63] | 198
5 | C[C@@H]1CC[C@@H](C)N1Cc1sc(Nc2ncnc(N3CC[C@H](N(C)CCC(=O)O)C3)c2F)nc1-c1cc(Cl)cc(C(F)(F)F)c1 [Example 65] | 174
6 | C[C@@H]1CCCN1Cc1sc(Nc2ncnc(N3CCN(CCC(=O)O)CC3)c2F)nc1-c1cc(Cl)cc(OC(F)(F)F)c1 [Example 51] | 129
7 | C[C@@H]1CCCN1Cc1sc(Nc2ncnc(N3CCN(CCC(=O)O)[C@@H](C)C3)c2F)nc1-c1ccc(Cl)c(C(F)(F)F)c1 [Example 35] | 154
8 | Cc1nc(Nc2nc(-c3cc(F)cc(C(F)(F)F)c3)c(CN(C)C(C)C)s2)c(F)c(N2CCN(CCC(=O)O)CC2)n1 [Example 98] | 139
9 | Cc1nc(Nc2nc(-c3cc(F)cc(C(F)(F)F)c3)c(CN3CCC[C@H]3C)s2)cc(N2CCN(CCC(=O)O)[C@H](C)C2)n1 [Example 21] | 116
10 | C[C@@H]1CCCN1Cc1sc(Nc2ncnc(N3CCN(CCC(=O)O)[C@@H](CO)C3)c2F)nc1-c1cc(F)cc(C(F)(F)F)c1 [Example 86] | 164
11 | C[C@@H]1CCCN1Cc1sc(Nc2ncnc(N3CCN(CCC(=O)O)[C@@H](C)C3)c2F)nc1-c1cc(F)cc(C(F)(F)F)c1 [Example 31] | 138
12 | C[C@@H]1CCCCN1Cc1sc(Nc2ncnc(N3CCN(CCC(=O)O)CC3)c2F)nc1-c1cc(Cl)cc(C(F)(F)F)c1 [Example 43] | 177
13 | C[C@@H]1CCCN1Cc1sc(Nc2nccc(N3CCN(CCC(=O)O)CC3)c2F)nc1-c1ccc(Cl)c(C(F)(F)F)c1 [Example 2, sodium 3-(4-{2-[(4-[4-chloro-3-(trifluoromethyl)phenyl]-5-{[(2R)-2-methylpyrrolidin-1-yl]methyl}-1,3-thiazol-2-yl)amino]-3-fluoropyridin-4-yl}piperazin-1-yl)propanoate] | 143
14 | CC[C@@H]1CCCN1Cc1sc(Nc2nc(C)nc(N3CCN(CCC(=O)O)CC3)c2F)nc1-c1cc(F)cc(C(F)(F)F)c1 [Example 38] | 142
15 | C[C@@H]1CC[C@@H](C)N1Cc1sc(Nc2nccc(N3CCN(CCC(=O)O)CC3)c2F)nc1-c1cc(F)cc(C(F)(F)F)c1 [Example 100] | 145
16 | COc1c(F)cc(-c2nc(Nc3cc(N4CCN(CCC(=O)O)CC4)ncn3)sc2CN2CCC[C@H]2C)cc1C(F)(F)F [Example 94] | 114
17 | COC1CCN(c2sc(Nc3cc(N4CCN(CCC(=O)O)CC4)nc(C)n3)nc2-c2cc(F)cc(C(F)(F)F)c2)CC1 [Example 27] | 123
18 | Cc1nc(Nc2nc(-c3cc(F)cc(C(F)(F)F)c3)c(CN3[C@H](C)CC[C@H]3C)s2)cc(N2CCN(CCC(=O)O)CC2)n1 [Example 99] | 121
19 | C[C@@H]1CC[C@@H](C)N1Cc1sc(Nc2ncnc(N3CCC(OCC(=O)O)CC3)c2F)nc1-c1cc(Cl)cc(C(F)(F)F)c1 [Example 68] | 172

Row | Structure (SMILES) | response vs control in vivo at 3 mg/kg [%]
20 | C[C@@H]1CCCN1Cc1sc(Nc2ncnc(N3CCN(CCC(=O)O)[C@H](CF)C3)c2F)nc1-c1cc(F)cc(C(F)(F)F)c1 [Example 58] | 175
21 | C[C@@H]1CCCN1Cc1sc(Nc2ncnc(N3CC[C@H](N(C)CCC(=O)O)C3)c2F)nc1-c1cc(F)cc(C(F)(F)F)c1 [Example 34] | 159
22 | C[C@@H]1CCCN1Cc1sc(Nc2nccc(N3CCN(CCC(=O)O)CC3)c2F)nc1-c1cc(F)cc(C(F)(F)F)c1 [Example 5, 3-(4-{3-fluoro-2-[(4-[3-fluoro-5-(trifluoromethyl)phenyl]-5-{[(2R)-2-methylpyrrolidin-1-yl]methyl}-1,3-thiazol-2-yl)amino]pyridin-4-yl}piperazin-1-yl)propanoic acid trihydrochloride] | 146
23 | Cc1nc(Nc2nc(-c3cc(F)cc(C(F)(F)F)c3)c(CN3CCC[C@H]3C)s2)cc(N2CCC(OCC(=O)O)CC2)n1 [Example 30] | 124
24 | C[C@@H]1CC[C@@H](C)N1Cc1sc(Nc2ncnc(N3CCN(CCC(=O)O)CC3)c2F)nc1-c1cc(Cl)cc(C(F)(F)F)c1 [Example 40] | 212
25 | Cc1nc(Nc2nc(-c3cc(F)cc(C(F)(F)F)c3)c(CN3CCC[C@H]3C)s2)cc(N2CCN(CCC(=O)O)[C@@H](C)C2)n1 [Example 15] | 130
26 | C[C@@H]1CCCN1Cc1sc(Nc2ncnc(N3CCN(CCC(=O)O)C(CF)C3)c2F)nc1-c1cc(F)cc(C(F)(F)F)c1 (some centres unmarked) [Example 45] | 182
27 | CC[C@@H]1CCCN1Cc1sc(Nc2ncnc(N3CCN(CCC(=O)O)[C@H](COC)C3)c2F)nc1-c1cc(F)cc(C(F)(F)F)c1 [Example 70] | 151
28 | CN(Cc1sc(Nc2ncnc(N3CCN(CCC(=O)O)CC3)c2F)nc1-c1cc(F)cc(C(F)(F)F)c1)CC1CC1 [Example 29] | 145
29 | Cc1nc(Nc2nc(-c3cc(F)cc(C(F)(F)F)c3)c(CN3CCC[C@H]3C)s2)cc(N2CCN(CC(=O)O)CC2)n1 [Example 16] | 111
30 | C[C@@H]1CCCN1Cc1sc(Nc2ncnc(N3CCC(OCC(=O)O)CC3)c2F)nc1-c1cc(Cl)cc(C(F)(F)F)c1 [Example 67] | 169
31 | C[C@@H]1CCCN1Cc1sc(Nc2ncnc(N3CCN(CC(=O)O)CC3)c2F)nc1-c1cc(Cl)cc(C(F)(F)F)c1 [Example 77] | 140
32 | CO[C@H]1CCCN(c2sc(Nc3ncnc(N4CCN(CCC(=O)O)CC4)c3F)nc2-c2ccc(Cl)c(C(F)(F)F)c2)C1 [Example 32] | 232
33 | COC1(C(=O)O)CCN(c2ncnc(Nc3nc(-c4cc(F)cc(C(F)(F)F)c4)c(CN4[C@H](C)CC[C@H]4C)s3)c2F)CC1 [Example 54] | 150
34 | C[C@@H]1CN(c2cc(Nc3nc(-c4cc(F)cc(C(F)(F)F)c4)c(CN4CCC[C@H]4C)s3)ncn2)CCN1CCC(=O)O [Example 20] | 118
35 | COC1(C(=O)O)CCN(c2ncnc(Nc3nc(-c4cc(F)cc(C(F)(F)F)c4)c(CN4CCC[C@H]4C)s3)c2F)CC1 [Example 39] | 123
36 | C[C@@H]1CC[C@@H](C)N1Cc1sc(Nc2ncnc(N3CCN(CCC(=O)O)CC3)c2F)nc1-c1ccc(Cl)c(C(F)(F)F)c1 [Example 36] | 191
37 | CC[C@@H]1CCCN1Cc1sc(Nc2ncnc(N3CCN(CCC(=O)O)[C@H](COC)C3)c2F)nc1-c1cc(Cl)cc(C(F)(F)F)c1 [Example 71] | 197
38 | C[C@@H]1CCCN1Cc1sc(Nc2cc(N3CCN(CCC(=O)O)CC3)ncn2)nc1-c1cc(Cl)cc(C(F)(F)F)c1 [Example 92] | 105
